In data set [1] the target is T1, purified human recombinant MTH1 (human MTH1, residues 42-197) (Homo sapiens, UniProt P36639).
T1 construct: human MTH1, residues 42-197, Uniprot-ID: P36639, expressed in E. coli; made in house; host or cells: E. coli
The data set is described as follows: MTH1 enzymatic assay (luminescence-based, PPiLight). Format: biochemical. The note with it: Table 2.

The nature of data set [2]: Microsomal stability (intrinsic clearance), mouse. Format: in vitro ADME. The note with it: mouse liver microsomes, 0.5 mg/ml protein, Clint. The text has this:
A microsomal stability assay is used to measure in vitro clearance (Clint). The assay involves measuring the rate of disappearance of a compound due to its intrinsic attitude to be metabolized (“intrinsic” meaning that the disappearance is not affected by other properties like permeability, binding etc. that play a role when quantifying in vivo clearance). The microsomal stability (intrinsic clearance, Clint) and thus metabolic stability is generally given as μl/min/mg protein. It can be visualized as the volume of solution that 1 mg of microsomes is able to clear of the compound in one minute.
A Tecan Genesis workstation (RSP 150/8) was used for to perform the microsomal incubations. Analysis was carried out using a Waters ACQUITY UPLC system coupled to an ABSciex API3000 mass spectrometer. Data analysis was performed using Assay Explorer (Symyx).
Column: Acquity UPLC BEH C18, 2.1×50 mm, 1.7 μm (Waters) Mobile phases: A=0.1% formic acid in water; B=acetonitrile
Flow rate: 0.750 mL/min; Detection: ESI, MRM; Injection: 10 μL; Column temperature: 50° C.
• Potassium phosphate buffer: 0.05 M potassium phosphate buffer pH 7.4 containing 1 mM MgCl2 • NADPH (nicotinamide adenine dinucleotide phosphate): 22.5 mg NADPH-Na4 in 1.8 ml potassium phosphate buffer • Acetonitrile: 50 Vol % acetonitrile (1 volume acetonitrile, 1 volume water) • DMSO: 20 Vol % DMSO in water • Stock solution of 20 mg/ml human or mouse liver microsomes (protein)/ml in phosphate buffer • Stock solution of 10 mM compound in 100% DMSO
Dilution of test compounds was done in 2 steps starting from a 10 mM stock solution of the respective compound in 100% DMSO. First 4 μl stock solution was added to 196 μl of 20 Vol % DMSO. In a second step, 10 μl of the first dilution were added to 1590 μl potassium phosphate buffer to achieve a final concentration of 1.25 μM in the final compound dilution. Thus, the amount of organic solvent in the assay was kept to a minimum (<1%).
The human or mouse liver microsome (protein) solution to be used in the assay was prepared by mixing 750 μl stock solution (20 mg/ml) and 2250 μl potassium phosphate buffer to a final concentration of 5 mg/ml.
Incubation was carried out on a 96 deep well incubation plate. 160 μl per well of the final compound dilution were transferred onto the incubation plate. Four samples of each compound dilution were assayed. 20 μl/well liver microsome solution was added to each well and the samples were then preincubated for 5 min at 37° C. and 800 rpm agitation. Two reference compounds (verapamil and dextromethorphan) were used in parallel in every experiment and for each species (human or mouse microsomes) to ensure system performance and for comparison.
On a separate stop plate, 160 μl acetonitrile were added per well.
After preincubation, i.e. at time t1=0 minutes, 18 μl samples of incubated compound solution and were transferred and added per well (containing acetonitrile) on the stop plate to prevent a reaction (0 minutes control samples, 4 samples per compound). Equally, 18 μl samples of incubated reference compound solution were transferred and added per well (containing acetonitrile) on the stop plate at time t1=0 minutes and again after 30 minutes (t4), solubility and chemical stability of the compound were checked. […]

The structures appear in SMILES notation.

Take `CNc1cc(-c2cccc(Cl)c2Cl)nc(N)n1` [TH-287, reference compound]: the IC50 in data set [1] was under 1 nM. In data set [2], the Microsomal stability mouse came out at 444 μl/min/mg prot.
